Results published in patent US20220339178A1, “COMPOSITIONS AND METHODS FOR COGNITIVE PROTECTION OF POLLINATORS AGAINST PESTICIDES” (priority 2019, published 2022).

Tested on: Honey bee foragers (Apis mellifera scutellata)
Assay: Sucrose responsiveness (sensory sensitivity) of honey bees: flavonoids vs deltamethrin
Format: in vivo
Details: honey bees; rutin 1 μM, kaempferol 131.7 μM or both for one day; 17.81 μM deltamethrin next day; pooled score
Method: Honey bee foragers (Apis mellifera scutellata) were captured from established hives at the Apiary of the Universidad del Rosario (Bogota, Colombia) between 08:00 h and 10:00 h. Bees were ice-anesthetized and harnessed in plastic tubes and maintained under laboratory conditions for the duration of the experiment (three days).
On the first day, bees were randomly allocated to one of four treatments administered as two doses (morning: 20 μL; afternoon:10 μL): i) Control (1M sucrose solution), ii) Rutin 1 μM (Sigma-Aldrich R5143), iii) Kaempferol 131.7 μM (Sigma-Aldrich K0133), iv) Rutin-Kaempferol composition (final concentration of […] rutin and 131.7 μM kaempferol). All solutions were diluted in 1M sucrose solution to the concentrations described above. The next day, bees from each group were randomly assigned to one of two treatments: […] of 1M sucrose solution or 17.81 μM deltamethrin (Dinastia Bayer). Thus, bees belonged to one of eight treatments: i) Sucrose water (Control), ii) Rutin (Rut), iii) Kaempferol (Kaemp), iv) Kaempferol+Rutin (Kaemp+Rut), v) Deltamethrin (Delta), vi) Rutin+Deltamethrin (Rut+Delta), vii) Kaempferol+Deltamethrin (Kaemp+Delta), viii) Kaempferol+Rutin+Deltamethrin ((Kaemp+Rut)+Delta). All solutions were diluted in 1M sugar water to the concentrations described above.
Sensory sensitivity was evaluated using responsiveness to sucrose, a proxy of resource exploitation by foragers. On the second day, bees of the eight treatments described above were tested five times for their response threshold (0 h, 1 h, 2 h, 3 h and 4 h). The first measure (0 h) was done prior to pesticide administration. Bees were tested with an ascending sucrose concentration of 0.1, 0.3, 1, 3, 10 and 30% (w/w). Between each concentration, the bees were presented with pure water as a control for potential sensitization or habituation (Pankiw et al., Behav Ecol Sociobiol (2000) 47:265-267). The inter-trial time between the presentation of each sucrose concentration was at least 4 minutes. For each presentation, the reflexive extension of the proboscis (tongue) of the bee, after antennal stimulation with the solution was recorded. After the last measure (4 h), bees were fed with 10 μL of 1M sucrose solution and maintained until the next day for a final test (24 hours after pesticide administration).
For each bee, a responsiveness score was determined (0-7) 0 h, 1 h, 2 h, 3 h, 4 h and 24 h, and a pooled scored (0-42). Normal distribution of the scores was tested using Shapiro-Wilk W Test for the null hypothesis that data is from a Normal distribution. […] Thus, non-parametric tests were used for comparisons across treatments and for multiple comparisons. Overall changes of responses across different concentrations were evaluated using repeated-measured MANOVA. Error associated with multiple comparisons was controlled using the Two-stage sharpened False Discovery Rate, and corrected p-values (q-values) are presented. Data were explored for outliers using a single run of Robust Fit outliers test. All analyses were conducted using JMP v.14 (SAS Institute Inc.)

`C[C@@H]1O[C@@H](OC[C@H]2O[C@@H](Oc3c(-c4ccc(O)c(O)c4)oc4cc(O)cc(O)c4c3=O)[C@H](O)[C@@H](O)[C@@H]2O)[C@H](O)[C@H](O)[C@H]1O` [Rutin] was tested, and the “sensitivity (sucrose responsiveness, total PER score) relative to Control bees” value was “not significantly affected”.
